# Measurements: PMC10779086, “3-O-Methyltolcapone and Its Lipophilic Analogues Are Potent Inhibitors of Transthyretin Amyloidogenesis with High Permeability and Low Toxicity” (International Journal of Molecular Sciences, 2023)
# “And” between values parts separate entries of the source, which are not always exact repeats. Identical values can stand only once. Like-named read-outs stand apart in the source and are kept apart here.
# Key:
# [1] = cited from earlier work
# [2] = Caco-2 intestinal permeability; assay type: in vitro ADME, human; settings: human; for recovery at 60 min: Caco-2, pH 7.4, with Elacridar 2 µM; for Papp A→B at 60 min, 10 μM / Papp B→A at 60 min, 10 μM: Caco-2, pH 7.4
# Protocol: (§1) Caco-2 cells (cod. HTB-37) were bought from ATCC (American Type Culture Collection, Rockville, MD, USA). Caco-2 cells were cultured for 21 days on a 24 trans-well plate to reach the right confluence and differentiate until the formation of the intestinal epithelium mimetic monolayer. The test substance permeability was measured in both directions (apical to basolateral [A→B] and basolateral to apical [B→A]) across the cell monolayer. The assay was carried out in HBSS transport medium at pH 7.4. Test substance at single concentration (10 μM) was tested in duplicate at one time point (60 min). Monolayer integrity of Caco-2 cells was evaluated by TEER measurements during the experiment and by Lucifer Yellow test after the incubation with the test compound. The concentrations of the test substance and/or reference controls were measured by LC-MS/MS.
# (§2) When the inhibitor leads the efflux ratio to a significant reduction (>50%) or to unity, the test compound is classified as a probable substrate of that efflux transporter. As control, the modulation of the efflux ratio of a reference known substrate (Digoxin) was evaluated with or without the respectively inhibitors in every experiment. […] In parallel, mass balance (%) of recovered test substance was also determined. […] Outside these ranges the permeability data is not reliable.
# Caco-2 cells [3] = assay: Caco-2 intestinal permeability; assay type: in vitro ADME, human; settings: reduction of efflux ratio by Elacridar 2 µM
# Protocol: as §1, §2
# Caco-2 cells [4] = settings: expected value in brackets, cited from earlier work
# [5] = Kinetic solubility in PBS; assay type: physicochemical; settings: Phosphate Buffered Saline (PBS), aqueous buffer, kinetic from dmso stock, PBS pH 7.4, 1% DMSO
# Protocol: (§3) The assay combines solubility and a non-cell-based Blood Brain Barrier permeability assay (Parallel Artificial Membrane Permeation Assay; PAMPA-BBB) into a single workflow in which a portion of the filtrate from the Solubility filter plate is added to the donor compartment of the MultiScreen filter plate for the PAMPA-BBB analysis. […] Solutions were filtered into a 96-well collection plate using vacuum filtration and then analysed by UV/Vis spectroscopy. The relative solubility was then calculated using the sum of the recorded values as compared to a standard calibration curve. […] PAMPA-BBB determination was carried out in a 96-well MultiScreen Permeability plate and the ability of a compound to diffuse from a Donor to an Acceptor compartment separated by a Porcine Brain Lipid Extract (PBLE) dissolved in dodecane (20 mg/mL) layer on a PVDF membrane support was measured. The assay was performed in duplicate in PBS at pH 7.4 and the analysis is carried out by UV/Vis spectroscopy.
# TTR [6] = target: TTR (Homo sapiens, UniProt P02766); assay: Isothermal titration calorimetry (ITC), one-binding-site model; parameters: made in house; host or cells: E. coli BL21; settings: single-binding-site model, 25 °C
# Protocol: At an absorbance value of 600 nm around 0.3, the temperature was shifted to 30 °C.
# Data were fitted using the “one-binding-site model” of the Malvern version of ORIGIN v.7. The heat of binding (ΔH), the stoichiometry (n), entropy (ΔS) and the dissociation constant (Kd) were then calculated from plots of the heat evolved per mole of ligand injected versus the molar ratio of ligand to protein using the software provided by the vendor (Table 3). Sample preparation is detailed below. […] A 10 µM protein stock in 2× buffer was then prepared and diluted 1:1 with a 10% DMSO solution, to obtain a 5 µM TTR solution in 1× buffer A and 5% DMSO. Different protein concentrations (3–5 µM) assayed in the replicates were prepared accordingly, starting from a 2× protein solution in 2× buffer A. Each ligand was dissolved in 100% DMSO and a 2 mM stock solution in 100% DMSO was prepared. A 200 µM compound solution was obtained in 10% DMSO and diluted 1:1 with 2× buffer A, to obtain a 100 µM ligand solution to be used for the ITC assays (in 1× buffer A and 5% DMSO).
# [7] = Chromatographic Hydrophobicity Index (CHI); assay type: physicochemical
# Source text: The assay is a chromatographic fast gradient reversed-phase method which allows to characterize the lipophilicity of compounds in high throughput screening regime at three different pH values (2.0; 7.4; 10.5). The so defined CHI is obtained from the gradient (buffer/Acetonitrile) retention time after calibrating the chromatographic system with a test mixture of ten known standard compounds. For most compounds, CHI is between 0 and 100 and it approximates the percentage (by volume) of acetonitrile required to achieve an equal distribution of compound between the mobile and the lipophilic stationary phase of a C18 chromatographic column. Compounds that are not retained on the column are assigned to a CHI value < 0, which means very low lipophilicity. For highly lipophilic compounds, which are strongly retained by the column, a CHI value of >100 is assigned. For any value in between, the actual CHI value is calculated based on the calibration line of the reference compounds [49].
# [8] = test system: SH-SY5Y neuroblastoma human cell line; assay: Cytotoxicity in SH-SY5Y cells (ATP viability assay); assay type: cell-based; settings: 48 h
# Protocol: The neuroblastoma cell line SHSY-5Y (ATCC CRL2266) was cultured in EMEM ATCC medium supplemented with 10% FBS (Euroclone CAT No. ECS0180D), 100 units/mL penicillin, and 100 ug/mL streptomycin sulphate (Euroclone CAT No. ECB3001). Cells were grown at 37 °C in an atmosphere of 5% CO2 and plated at 10,000 cells/well in a 96-well plate (Corning Cat. N. 3610). The compounds were dissolved at a concentration of 10 mM in DMSO. Cells were stimulated for 48 h at 37 °C with serial dilutions of the compounds at the following concentrations: 0.1, 1, 10, 50, 100, and 200 μM and dispensed with an HP Dispenser (Tecan), as triplicates for each concentration. DMSO normalisation at 1.5% was performed in each well.
# (§4) Cell viability was evaluated by measuring ATP levels using CellTiter Glo (Promega Cat.n. G7570) according to manufacturer’s instructions.
# [9] = test system: HepG2 human liver cancer cell line; assay: Cytotoxicity in HepG2 cells (ATP viability assay); assay type: cell-based; settings: 48 h
# Protocol: Compounds were dissolved at the concentration of 50 mM in DMSO.
# DMSO normalisation at 1.0% was performed in each well.
# as §4
# [10] = Blood-brain barrier permeability (PAMPA-BBB); assay type: in vitro ADME
# Protocol: as §3
# The compounds are classified into 2 types: CNS+ compounds that can cross the BBB and CNS- compounds that cannot according to the Pe values (BBB−, Pe < 2 × 10^−6 cm/s; BBB +/−, 2 × 10^−6 cm/s < Pe < 4 × 10^−6 cm/s; BBB+, Pe > 4 × 10^−6 cm/s).
# Membrane retention is also evaluated according to Equation (1), (1) 1−Rm=CAccVAcc+CDonorVDonor/Sol×VDonor where Rm is the membrane retention factor. 1 − Rm between 1.2 and 0.8 is considered fully acceptable for the reliability of the results.
# TTR [11] = settings: sequential model, cited from earlier work
smiles,measurement,setting,value
"Cn1c(=O)c2c(ncn2C)n(C)c1=O [Caffeine, caffeine]",CNS Class [Expected Values],[1]; expected class in brackets,"CNS− [CNS−] (BBB−, Pe < 2 × 10^−6 cm/s)"
same,BBB-Pe [Expected Values],[1]; expected value in brackets,1.3 10^−6 cm/s
"C[C@H]1O[C@@H](O[C@H]2[C@@H](O)C[C@H](O[C@H]3[C@@H](O)C[C@H](O[C@H]4CC[C@@]5(C)[C@H](CC[C@@H]6[C@@H]5C[C@@H](O)[C@]5(C)[C@@H](C7=CC(=O)OC7)CC[C@]65O)C4)O[C@@H]3C)O[C@@H]2C)C[C@H](O)[C@@H]1O [Digoxin, reference compound]","recovery at 60 min, 10 µM","[2]; Caco-2, pH 7.4, A→B",67 ± 5%
same,"recovery at 60 min, 10 µM","[2]; Caco-2, pH 7.4, B→A",71 ± 6%
same,recovery at 60 min,[2]; A→B + Elacridar 2 µM,72 ± 1%
same,recovery at 60 min,[2]; B→A + Elacridar 2 µM,75 ± 3%
same,"efflux ratio at 60 min, 10 μM","[2]; Caco-2, pH 7.4, without inhibitor, read-out: Efflux Ratio (Papp BA/Papp AB)",> 10
same,"Papp A→B at 60 min, 10 μM",[2],0.2 ± 0.1 ×10⁻⁶ cm/s
same,"Papp B→A at 60 min, 10 μM",[2],14.1 ± 2.6 ×10⁻⁶ cm/s
same,Efflux Ratio (Reduction %),Caco-2 cells [3],96%
same,Papp [Expected Values],Caco-2 cells [4]; A→B,2 nm/s
same,Papp [Expected Values],Caco-2 cells [4]; B→A,139 nm/s
"COCCc1ccc(OCC(O)CNC(C)C)cc1 (stereo not shown) [Metoprolol, reference compound]","recovery at 60 min, 10 µM","[2]; Caco-2, pH 7.4, A→B",105 ± 5%
same,"Papp A→B at 60 min, 10 μM",[2],> 40 ×10⁻⁶ cm/s
same,Papp [Expected Values],Caco-2 cells [4]; A→B,>400 [>400] nm/s
"Cn1c(=O)c2[nH]cnc2n(C)c1=O [Theophylline, theophylline, reference compound]",solubility,[5],> 500 µM
"O=C(O)c1ccc2nc(-c3cc(Cl)cc(Cl)c3)oc2c1 [tafamidis, reference compound]","n (stoichiometry of binding, ligand:TTR tetramer)",TTR [6],2.4 ± 0.1
same,∆H,TTR [6],-3.2 kcal/mol and -3.2 ± 0.3 kcal/mol
Cc1ccc(C(=O)c2cc(O)c(O)c([N+](=O)[O-])c2)cc1 [tolcapone],CHI (pH 2.0),[7]; pH 2.0,78.2
same,CHI (pH 10.5),[7]; pH 10.5,49.3
same,EC50,[8],29.8 ± 1.1 µM
same,EC50,[9],17.5 ± 2.4 µM
same,"recovery at 60 min, 10 µM","[2]; Caco-2, pH 7.4, A→B",53 ± 1%
same,"recovery at 60 min, 10 µM","[2]; Caco-2, pH 7.4, B→A",70 ± 4%
same,"Papp A→B at 60 min, 10 μM",[2],10.1 ± 1.2 ×10⁻⁶ cm/s
same,"Papp B→A at 60 min, 10 μM",[2],20.6 ± 5.8 ×10⁻⁶ cm/s
same,1-Rm (membrane retention),[10],0.9
same,Papp,"[10]; PBS pH 7.4, read-out: BBB-Pe",5.6 ×10⁻⁶ cm/s
same,CNS Class,[10]; classified by Pe,"CNS+ (BBB+, Pe > 4 × 10^−6 cm/s)"
same,solubility,[5],> 500 µM
same,Kd,TTR [11]; read-out: Kd′ (first binding site),0.021 µM
same,Kd,TTR [11]; read-out: Kd″ (second binding site),0.058 µM
same,"n (stoichiometry of binding, ligand:TTR tetramer)",TTR [6],2.0 ± 0.1
same,∆H,TTR [6],-11.8 kcal/mol and -11.8 ± 0.5 kcal/mol
